Columns and labels:
[1] = tested on: A549 (lung adenocarcinoma); experiment: In vitro cytotoxicity, sulforhodamine B assay; type: cell-based, human; details: 72 h
Description: (§1) Determination of the cytotoxic activity of compounds tested was performed separately in the normoxia or hypoxia conditions to reveal their potentially bioreductive properties. The experiment was carried out on three human cancer cell lines: MCF-7 breast, ES-2 ovarian and A549 lung adenocarcinoma as well as normal murine embryonic fibroblast BALB/3T3 cell line. In order to facilitate the preparation of solutions of the tested compounds, their initial solutions for dilution were made by dissolving the compounds in acetone. For this purpose, it was not possible to use more polar aprotic solvents (DMSO, DMF) due to the rapid isomerization of some of the tested complexes under their influence.
(§2) All the cell lines were cultured at 37 °C in a humid atmosphere containing 5% CO2. Additionally, in the case of cytotoxicity assay with hypoxic conditions, the cells (MCF-7, ES-2, A549) were maintained at 37 °C in a humid atmosphere containing 5% CO2 and 1% O2 during the entire experiment.
(§3) Twenty-four hours before adding the tested compounds, all cell lines were seeded in 96-well plates ([…] AG & Co, Nümbrecht Germany) in an appropriate media with 10^4 cells per well. All cell lines were exposed to each compound tested at four different concentrations for 72 h. […] Additionally, all cell lines were exposed to acetone (Avantor Performance Materials, Gliwice, Poland) (the solvent used for tested compounds) at concentrations corresponding to those present in tested compounds’ dilutions.
(§4) After 72 h of cell incubation with the compounds tested, the sulforhodamine B (SRB) assay was performed as described by Shekan et al. with minor modifications. The cells were fixed in situ by adding 50 µL per well of cold 50% trichloroacetic acid (Avantor Performance Materials, Gliwice, Poland) and were incubated at 4 °C for one hour. Following that, wells were washed five times with water and air dried. Next, 50 µL of 0.4% solution of sulforhodamine B (Sigma-Aldrich, Steinheim, Germany) in 1% acetic acid (Avantor Performance Materials, Gliwice, Poland) were added to each well and plates were incubated at room temperature for 0.5 h. After incubation time, the unbound dye was removed by washing plates five times with 1% acetic acid, whereas stains bound to cells was solubilized with 10 mM Tris base (Sigma-Aldrich, Steinheim, Germany). The absorbance of each solution was read by the Multiskan RC photometer (Labsystems Diagnostics Oy, Vantaa, Finland) at a 540 nm wavelength. Results are presented as mean IC50 (concentration of the compound tested that inhibits cell proliferation by 50%) ± standard deviation. IC50 values were calculated for each experiment on the basis of four different concentrations using Cheburator software, as described by Nevozhay. The tested compounds at each concentration were tested in triplicates in a single experiment and each experiment was repeated at least three times independently.

[2] = tested on: ES-2 (ovarian adenocarcinoma); experiment: In vitro cytotoxicity, sulforhodamine B assay; type: cell-based, human; details: 72 h
Description: as §1, §2, §3, §4

[3] = tested on: MCF-7 (breast adenocarcinoma); experiment: In vitro cytotoxicity, sulforhodamine B assay; type: cell-based, human; details: 72 h
Description: as §1, §2, §3, §4

[4] = tested on: BALB/3T3 (murine embryonic fibroblast); experiment: In vitro cytotoxicity, sulforhodamine B assay, normal cells; type: cell-based; details: BALB/3T3 normal cells, normoxia, 72 h
Description: as §1, with “acetone.” for “acetone. For this purpose, it was not possible to use more polar aprotic solvents (DMSO, DMF) due to the rapid isomerization of some of the tested complexes under their influence.”
All cell lines were exposed to each compound tested at four different concentrations for 72 h. […] Additionally, all cell lines were exposed to acetone (Avantor Performance Materials, Gliwice, Poland) (the solvent used for tested compounds) at concentrations corresponding to those present in tested compounds’ dilutions.
as §4, with “Results are presented as mean IC50 (concentration of the compound tested that inhibits cell proliferation by 50%) ± standard deviation.” left out

MCF-7 cells = experiment: Total cellular platinum uptake (ICP OES); type: cell-based, human; details: MCF-7, 4 h exposure, 10 µM
Description: It is necessary to strongly emphasize that the underlined values have a statistically significant lack of variance homogeneity (Fisher–Snedecor’s F-test, Fα/2) with respect to reference drug variance, so Aspin–Welch’s t-test was applied in these cases. […] For ionic compound 8, platinum uptake value was not determined due to Pt concentrations in the cell lysates being below the instrument detection limit (IDL = 10 μg/kg) specified by the manufacturer for the device used.
Cultured MCF-7 cells were seeded at a density of 4 × 10^5 cells/well of culture medium on a 6-well plate (Corning, NY, USA) to a final volume of 2.5 mL. […] The wells without MCF-7 cells were filled with 1 mL of culture medium-containing compound tested to act as a reference for nonspecific platinum complex adsorption on the surface of the well. After incubation, all wells were washed twice with 2 mL of cold PBS, filled with 400 μL of hot (ca 90 °C) 65% nitric acid, and maintained to stand for 2 h. All wells were finally filled with 1600 μL of water and this solution was collected and analyzed using iCAP 7400 Duo ICP OES instrument (Thermo Fisher Scientific) using the plasma axial view (10 s) at λ = 265.945 nm. The amount of Pt per cell was calculated by subtracting the amount of Pt found in the blank well from the amount of Pt found in the cell-containing wells and normalized to the average number of cells per well. The mean and SD values were calculated on the basis of 4 measurements.

[5] = logP by shake-flask method (n-octanol / 0.9% NaCl, Pt by ICP-OES); type: physicochemical; details: octanol/water, n = 4
Description: An important factor for the pharmacokinetics and the cellular accumulation of the investigated complexes, their lipophilicity was determined by measuring octanol/water partition coefficients (logP) with the shake-flask method. The logP determination was carried out based on a previously described procedure, modified by us to obtain more accurate and repeatable results.
Weighted amounts of the tested platinum complex were suspended by 10 min sonification in 0.9% NaCl water solution, which was previously saturated with n-octanol, and mixed by shaking for 1 h. A simultaneously similar procedure was performed using 5 mL of n-octanol pre-saturated with 0.9% NaCl. Afterward, both suspensions were mixed together, shaken for an additional 1 h, and centrifuged for 5 min. After phase separation and evaporation in vacuo of 1 mL of sample to dryness, the final concentration of Pt was determined by ICP-OES (λ = 265.945 nm) and the partition coefficients were calculated. For the analysis, all samples were dissolved 1:1000 in 2.5% HCl. Each measurement was repeated four times and the final logP was calculated as the arithmetic mean of the four values.

[6] = set-up: method as in PMID 18777181; details: cited from earlier work

SMILES	IC50 ± SD ([1]; A549, hypoxia (1% O2))	IC50 ± SD ([1]; A549, normoxia)	IC50 ± SD ([2]; ES-2, hypoxia (1% O2))	IC50 ± SD ([2]; ES-2, normoxia)	IC50 ± SD ([3]; MCF-7, hypoxia (1% O2))	IC50 ± SD ([3]; MCF-7, normoxia)	IC50 ([4]; Mus musculus) [µM]	Total Cellular Platinum Uptake in MCF-7 Cells (± SD) (MCF-7 cells)	IC50 ([1]; A549, hypoxia (1% O2)) [µM]	IC50 ([1]; A549, normoxia) [µM]	IC50 ([2]; ES-2, hypoxia (1% O2)) [µM]	IC50 ([2]; ES-2, normoxia) [µM]	IC50 ([3]; MCF-7, hypoxia (1% O2)) [µM]	IC50 ([3]; MCF-7, normoxia) [µM]	IC50 [4] [µM]	logP ± SD [5]	half-time of the reaction with GSH [6] [min]
Cn1cc([N+](=O)[O-])cn1 [1-Methyl-4-nitropyrazole, 1-methyl-4-nitropyrazole, reference compound]	inactive	inactive	inactive	inactive	inactive	inactive	> 100	–	–	–	–	–	–	–	–	–	–
N.N.[Cl][Pt][Cl] [Cisplatin, cisplatin, reference compound]	–	–	–	–	–	–	–	74 ± 20 ng Pt/10^6 Cells	23.9 ± 9.3	9.8 ± 1.2	13.7 ± 5.7	8.6 ± 2.6	14.7 ± 5.8	12.6 ± 2.6	8.67 ± 2.6	–	–
COC(=O)c1c([N+](=O)[O-])c[n+]([Pt@SP2-2]([Cl])([Cl])[n+]2cc([N+](=O)[O-])c(C(=O)OC)n2C)n1C [Compound 5, cis-dichloridobis(methyl 1-methyl-4-nitropyrazole-5-carboxylate)platinum(II)]	inactive	inactive	inactive	–	inactive	–	–	39 ± 3 ng Pt/10^6 Cells	–	–	–	38.1 ± 9.2	–	49.1 ± 30.1	> 100	−0.58 ± 0.13	–
COC(=O)c1c([N+](=O)[O-])c[n+]([Pt@SP3-2]([Cl])([Cl])[n+]2cc([N+](=O)[O-])c(C(=O)OC)n2C)n1C [Compound 6, trans-dichloridobis(methyl 1-methyl-4-nitropyrazole-5-carboxylate)platinum(II)]	inactive	–	–	–	–	–	–	47 ± 17 ng Pt/10^6 Cells	–	58.2 ± 7.6	99.8 ± 37.9	36.3 ± 8.6	86.8 ± 19	23.6 ± 8.6	> 100	−0.37 ± 0.03	–
Cc1c([N+](=O)[O-])cn(C)[n+]1[Pt@SP2-2]([Cl])([Cl])[n+]1c(C)c([N+](=O)[O-])cn1C [Compound 7, cis-dichloridobis(1,3-dimethyl-4-nitropyrazole)platinum(II)]	inactive	–	inactive	–	inactive	–	–	16 ± 7 ng Pt/10^6 Cells	–	93 ± 12.9	–	68.9 ± 10	–	58 ± 8.7	> 100	−0.69 ± 0.04	–
COC(=O)c1c([N+](=O)[O-])cn(C)[n+]1[Pt-2]([Cl])([Cl])[Cl].[K+] [Compound 8, potassium trichlorido(3-carboxymethyl-1-methyl-4-nitropirazole)platinate(II)]	inactive	inactive	inactive	–	inactive	inactive	–	^† below IDL	–	–	–	48.5 ± 25.9	–	–	> 100	−1.22 ± 0.08	–
N.N.[Cl][Pt+2][Cl] [transplatin]	–	–	–	–	–	–	–	–	–	–	–	–	–	–	–	–	4

Source: PMC7768359, “Synthesis of Platinum(II) Complexes with Some 1-Methylnitropyrazoles and In Vitro Research on Their Cytotoxic Activity” (Pharmaceuticals, 2020)
